Experimental data from ChEMBL document CHEMBL5518181, “Studies of antibacterial activity (in vitro and in vivo) and mode of action for des-acyl tridecaptins (DATs)” (Eur J Med Chem, 2024).

Assay: Toxicity in naive mouse assessed as drug tolerance at 20 mg/kg, sc administered as single dose every 4 hrs for 24 hrs
Assay type: organism-based
Settings: in vivo

COLISTIN
Activity: Non-Toxic
